According to paper PMC9127750, “Structure-based design of CDC42 effector interaction inhibitors for the treatment of cancer” (Cell reports, 2022):
Values joined by “and” are separate entries in the source; they are usually repeats but may differ in a detail not shown here. Identical values can stand only once.

System: WM3248 melanoma cells, 486 antibodies
Test: Reverse phase protein arrays (RPPA)
Type: cell-based, Human
Text: Pellets were snap frozen in liquid nitrogen and shipped to MD Anderson Cancer Center core RPPA facility for RPPA analysis (Table S5). Three biological replicates for each sample were generated.
Nomenclatures on the RPPA heatmaps: name_of_antibody.species_of_antibody.status_of_antibody. V - antibody validated; C - validation of antibody in progress; Q - antibody nonspecific; E – under evaluation; antibodies raised in M - mouse, G - goat, R - rabbit, or T - rat.

In the case of `CN(C)c1cccc(Nc2cc(-c3ccccc3)nc(C3CCNCC3)n2)c1` [ARN22089, N1,N1-dimethyl-N3-(6-phenyl-2-(piperidin-4-yl)pyrimidin-4-yl)benzene-1,3-diamine], the “LCN2.R.V Norm_10 Average” value (level 10 vs 0) is reported as 1.417, the “LDHA.R.C Norm_10 Average” value (level 10 vs 0) is reported as 1.541 and the “LRP6_pS1490.R.V Norm_10 Average” value (level 10 vs 0) is reported as 0.919. For the same molecule, the “Lasu1.R.V Norm_10 Average” value (level 10 vs 0) was 1.173, the “MACC1.R.V Norm_10 Average” value (level 10 vs 0) was 0.973 and the “MAPK_pT202_Y204.R.C Norm_10 Average” value (level 10 vs 0) was 0.758. For the same molecule, the “MCT4.R.V Norm_10 Average” value (level 10 vs 0) was 0.926, the “MDM2_pS166.R.V Norm_10 Average” value (level 10 vs 0) was 1.140 and the “MEK1.R.V Norm_10 Average” value (level 10 vs 0) was 1.376. For the same molecule, the “MEK1_pS217_S221.R.V Norm_10 Average” value (level 10 vs 0) was 0.904, the “MEK2.R.V Norm_10 Average” value (level 10 vs 0) was 0.981 and the “MERIT40.R.C Norm_10 Average” value (level 10 vs 0) was 0.966. The “MERIT40_pS29.R.V Norm_10 Average” value (level 10 vs 0) was 1.055, the “METTL3.R.V Norm_10 Average” value (level 10 vs 0) was 1.153 and the “MIF.R.C Norm_10 Average” value (level 10 vs 0) was 1.003. The “MIG6.R.V Norm_10 Average” value (level 10 vs 0) was 0.937, the “MITF.R.V Norm_10 Average” value (level 10 vs 0) was 1.099 and the “MLH1.M.V Norm_10 Average” value (level 10 vs 0) was 0.965. The “MLKL.R.V Norm_10 Average” value (level 10 vs 0) was 0.901, the “MMP2.R.V Norm_10 Average” value (level 10 vs 0) was 0.936 and the “MMP14.R.V Norm_10 Average” value (level 10 vs 0) was 1.251. For the same molecule, the “MR1.M.C Norm_10 Average” value (level 10 vs 0) was 1.002, the “MSH6.R.C Norm_10 Average” value (level 10 vs 0) was 1.139 and the “MSI2.R.C Norm_10 Average” value (level 10 vs 0) was 1.076. The “MTCO1.M.V Norm_10 Average” value (level 10 vs 0) was 1.058, the “MTSS1.M.C Norm_10 Average” value (level 10 vs 0) was 0.995 and the “Mcl.1.R.V Norm_10 Average” value (level 10 vs 0) was 0.815. For the same molecule, the “MelanA.R.C Norm_10 Average” value (level 10 vs 0) was 0.907, the “Melanoma.gp100.R.C Norm_10 Average” value (level 10 vs 0) was 0.952 and the “Merlin.R.C Norm_10 Average” value (level 10 vs 0) was 1.140. For the same molecule, the “Midkine.R.V Norm_10 Average” value (level 10 vs 0) was 0.931, the “Mitofusin.1.R.V Norm_10 Average” value (level 10 vs 0) was 0.966 and the “Mitofusin.2.R.V Norm_10 Average” value (level 10 vs 0) was 0.982. For the same molecule, the “Mnk1.R.V Norm_10 Average” value (level 10 vs 0) was 0.908, the “mTOR_pS2448.R.C Norm_10 Average” value (level 10 vs 0) was 1.026 and the “HLA.DQA1.R.V Norm_10” value (level 10 vs 0, replicates) was 0.816 and 1.208 and 0.956. The “HLA.DR.DP.DQ.DX.R.C Norm_10” value (level 10 vs 0, replicates) was 0.907 and 1.197, the “HMHA1.R.V Norm_10” value (level 10 vs 0, replicates) was 0.915 and 0.873 and 0.979 and the “HNRNPK.R.V Norm_10” value (level 10 vs 0, replicates) was 0.952 and 0.960. For the same molecule, the “HSP27.M.C Norm_10” value (level 10 vs 0, replicates) was 0.892 and 1.008 and 0.976, the “HSP27_pS82.R.V Norm_10” value (level 10 vs 0, replicates) was 0.956 and 0.808 and 0.983 and the “HSP60.R.V Norm_10” value (level 10 vs 0, replicates) was 0.910 and 0.899 and 0.970. For the same molecule, the “HSP70.R.C Norm_10” value (level 10 vs 0, replicates) was 0.893 and 0.957, the “Hexokinase.I.R.C Norm_10” value (level 10 vs 0, replicates) was 1.324 and 1.263 and the “Hexokinase.II.R.V Norm_10” value (level 10 vs 0, replicates) was 1.158 and 1.060 and 1.165. For the same molecule, the “Hif.1αR.C Norm_10” value (level 10 vs 0, replicates) was 1.534 and 0.812 and 1.121, the “Histone.H3.R.V Norm_10” value (level 10 vs 0, replicates) was 1.104 and 1.109 and 0.657 and the “Histone.H3_pS10.R.V Norm_10” value (level 10 vs 0, replicates) was 0.925 and 1.333 and 0.853. The “IDO.R.C Norm_10” value (level 10 vs 0, replicates) was 1.020 and 0.847 and 1.005, the “IGF1R_pY1135_Y1136.R.V Norm_10” value (level 10 vs 0, replicates) was 1.020 and 0.873 and 0.862 and the “IGFBP2.R.V Norm_10” value (level 10 vs 0, replicates) was 0.915 and 0.942. For the same molecule, the “IGFBP3.M.V Norm_10” value (level 10 vs 0, replicates) was 0.808 and 1.056 and 1.048, the “IGFRb.R.C Norm_10” value (level 10 vs 0, replicates) was 1.063 and 0.914 and 0.882 and the “IL.6.R.C Norm_10” value (level 10 vs 0, replicates) was 0.956 and 0.898 and 0.919. The “IMP3.R.C Norm_10” value (level 10 vs 0, replicates) was 0.902 and 1.022 and 0.935, the “INPP4b.R.C Norm_10” value (level 10 vs 0, replicates) was 0.944 and 1.130 and 1.013 and the “IR.b.R.C Norm_10” value (level 10 vs 0, replicates) was 1.057 and 0.927 and 0.958. The “IRF.1.R.V Norm_10” value (level 10 vs 0, replicates) was 0.995 and 0.851 and 0.777, the “IRF.3.R.V Norm_10” value (level 10 vs 0, replicates) was 0.868 and 1.016 and 1.018 and the “IRS1.R.V Norm_10” value (level 10 vs 0, replicates) was 1.002 and 0.864 and 0.920. For the same molecule, the “IRS2.R.C Norm_10” value (level 10 vs 0, replicates) was 1.495 and 0.732 and 0.873, the “JAB1.M.C Norm_10” value (level 10 vs 0, replicates) was 1.010 and the “JNK2.R.V Norm_10” value (level 10 vs 0, replicates) was 0.700 and 4.357 and 1.864. For the same molecule, the “JNK_pT183_Y185.R.C Norm_10” value (level 10 vs 0, replicates) was 1.101 and 0.836 and 0.927, the “Jagged1.R.V Norm_10” value (level 10 vs 0, replicates) was 0.925 and 0.930 and 0.952 and the “Jak2.R.V Norm_10” value (level 10 vs 0, replicates) was 0.891 and 0.946. For the same molecule, the “KAP1.R.V Norm_10” value (level 10 vs 0, replicates) was 1.129 and 0.933 and 1.246, the “KEAP1.R.V Norm_10” value (level 10 vs 0, replicates) was 1.137 and 0.961 and 0.953 and the “LAD1.R.V Norm_10” value (level 10 vs 0, replicates) was 0.810 and 0.787 and 1.126. For the same molecule, the “LC3A.B.R.C Norm_10” value (level 10 vs 0, replicates) was 1.080, the “LCN2.R.V Norm_10” value (level 10 vs 0, replicates) was 1.979 and 1.149 and 1.123 and the “LDHA.R.C Norm_10” value (level 10 vs 0, replicates) was 1.080 and 1.446 and 2.097. The “LRP6_pS1490.R.V Norm_10” value (level 10 vs 0, replicates) was 0.997 and 0.923 and 0.837, the “Lasu1.R.V Norm_10” value (level 10 vs 0, replicates) was 0.972 and 1.377 and 1.170 and the “Lck.R.V Norm_10” value (level 10 vs 0, replicates) was 1.025. For the same molecule, the “Lyn.R.V Norm_10” value (level 10 vs 0, replicates) was 0.836 and 1.342 and 1.046, the “MACC1.R.V Norm_10” value (level 10 vs 0, replicates) was 0.988 and 0.983 and the “MAPK_pT202_Y204.R.C Norm_10” value (level 10 vs 0, replicates) was 0.814 and 0.633 and 0.828. The “MCT4.R.V Norm_10” value (level 10 vs 0, replicates) was 0.718 and 0.987, the “MDM2_pS166.R.V Norm_10” value (level 10 vs 0, replicates) was 1.187 and 1.159 and the “MEK1.R.V Norm_10” value (level 10 vs 0, replicates) was 3.067 and 0.225 and 0.836.
